pIC50: −log10 of the molar value.
What was measured:
human JAK2 = molecular target: T1, human JAK2 (Homo sapiens, UniProt O60674); assay: JAK2 kinase Alphascreen assay; type: biochemical; details: recombinant human JAK2 (aa 808-end), 30uM ATP, 60 minutes, room temperature; read-out: JAK inhibitory activity IC50
T1 construct: human JAK2, amino acids 808-end; His6 (C); purchased Upstate Biotechnology 14-640; host or cells: baculovirus in Sf21 cells
Method: JAK2 kinase activity was measured for its ability to phosphorylate synthetic tyrosine residues within a generic polypeptide substrate using an Amplified Luminescent Proximity Assay (Alphascreen) technology (PerkinElmer, 549 Albany Street, Boston, Mass.).
To measure JAK2 kinase activity, commercially available purified enzyme, C-terminal His6-tagged, recombinant, human JAK2, amino acids 808-end, (Genbank Accession number NM 004972) expressed by baculovirus in Sf21 cells from Upstate Biotechnology #14-640 was used. After incubation of the kinase with a biotinylated substrate and adenosine triphosphate (ATP) for 60 minutes at room temperature, the kinase reaction was stopped by the addition of 30 mM ethylenediaminetetraacetic acid (EDTA). The reaction was performed in 384 well microtitre plates and the reaction products were detected with the addition of streptavidin coated Donor Beads and phosphotyrosine-specific antibodies coated Acceptor Beads using the EnVision Multilabel Plate Reader after an overnight incubation at room temperature.

human Trk A kinase = molecular target: T2, human Trk A kinase (Homo sapiens, UniProt P04629); assay: Trk A kinase Alphascreen assay; type: biochemical; details: HIS-tagged intracellular domain of human Trk A, 70 μM ATP, 20 minutes, room temperature; read-out: Trk inhibitory activity IC50
T2 construct: His; made in house; host or cells: SF9 insect cells
T2 sequence (P04629 442-796): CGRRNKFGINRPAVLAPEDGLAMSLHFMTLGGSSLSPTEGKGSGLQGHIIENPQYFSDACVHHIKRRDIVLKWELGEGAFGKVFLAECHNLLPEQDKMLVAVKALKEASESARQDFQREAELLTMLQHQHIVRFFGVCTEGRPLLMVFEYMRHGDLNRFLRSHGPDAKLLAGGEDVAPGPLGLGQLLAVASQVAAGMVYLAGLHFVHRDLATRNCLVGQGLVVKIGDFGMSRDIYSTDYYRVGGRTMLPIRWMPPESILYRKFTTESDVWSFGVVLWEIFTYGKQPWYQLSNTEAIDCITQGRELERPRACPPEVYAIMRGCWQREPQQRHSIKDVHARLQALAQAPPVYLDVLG
Method: Trk A kinase activity was measured for its ability to phosphorylate synthetic tyrosine residues within a generic polypeptide substrate using an Amplified Luminescent Proximity Assay (Alphascreen) technology (PerkinElmer, 549 Albany Street, Boston, Mass.).
To measure Trk A kinase activity, the intracellular domain of a HIS-tagged human Trk A kinase (amino acids 442-796 of Trk A, Swiss-Prot Primary Accession Number P04629) was expressed in SF9 cells and purified using standard nickel column chromatography. After incubation of the kinase with a biotinylated substrate and adenosine triphosphate (ATP) for 20 minutes at room temperature, the kinase reaction was stopped by the addition of 30 mM ethylenediaminetetraacetic acid (EDTA). The reaction was performed in 384 well microtitre plates and the reaction products were detected with the addition of strepavidin coated Donor Beads and phosphotyrosine-specific antibodies coated Acceptor Beads using the EnVision Multilabel Plate Reader after an overnight incubation at room temperature.

T1 sequence (O60674 808-1132 limits assumed): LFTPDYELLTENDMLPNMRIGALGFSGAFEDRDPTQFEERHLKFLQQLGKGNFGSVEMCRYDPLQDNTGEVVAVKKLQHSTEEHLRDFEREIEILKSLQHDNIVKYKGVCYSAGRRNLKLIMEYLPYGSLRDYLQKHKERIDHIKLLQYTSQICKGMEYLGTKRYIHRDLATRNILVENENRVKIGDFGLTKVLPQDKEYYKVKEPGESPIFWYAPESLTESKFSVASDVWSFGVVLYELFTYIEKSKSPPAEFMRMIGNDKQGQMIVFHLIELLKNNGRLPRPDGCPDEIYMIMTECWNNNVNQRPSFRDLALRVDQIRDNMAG

A pIC50 (human JAK2) of 8.41 was found for `COc1cc(Nc2nc(N[C@@H](C)c3ncc(F)cn3)ncc2Cl)n[nH]1` [Example 7, 5-Chloro-N^2-[(1S)-1-(5-fluoropyrimidin-2-yl)ethyl]-10-(5-methoxy-1H-pyrazol-3-yl)pyrimidine-2,4-diamine] in this work.

A pIC50 (human Trk A kinase) of 7.48 was found for `CC(C)Oc1cc(Nc2nc(NC(C)c3ncc(F)cn3)ncc2Cl)n[nH]1` (centres unmarked) [Example 1, 5-Chloro-N^4-(5-isopropoxy-1H-pyrazol-3-yl)-N^2-[1-(5-fluoropyrimidin-2-yl)ethyl]pyrimidine-2,4-diamine] in this work.

Reference: US8088784B2, “4-(3-aminopyrazole) pyrimidine derivatives for use as tyrosine kinase inhibitors in the treatment of cancer” (AstraZeneca AB, priority 2005, dated 2012)
